Results reported in patent publication US6713638B2, “2-amino-3-aroyl-4,5 alkylthiophenes: agonist allosteric enhancers at human A1 adenosine receptors” (priority 2001, dated 2004).

How the values were obtained:
hA1AR = target: T1, hA1AR (Homo sapiens, UniProt P30542); test: Assay of AE (allosteric enhancer) activity: slowing of 125I-ABA dissociation from the A1AR-G protein ternary complex; type: binding; conditions: CHO-K1 membranes; for AE Score, %: 0.1 mM final AE, specifically bound 125I-ABA remaining after 10 minutes of dissociation, Mean ± SEM (N = 3)
T1 construct: expressed in transfected cells; membranes
T1 sequence (P30542 1-326): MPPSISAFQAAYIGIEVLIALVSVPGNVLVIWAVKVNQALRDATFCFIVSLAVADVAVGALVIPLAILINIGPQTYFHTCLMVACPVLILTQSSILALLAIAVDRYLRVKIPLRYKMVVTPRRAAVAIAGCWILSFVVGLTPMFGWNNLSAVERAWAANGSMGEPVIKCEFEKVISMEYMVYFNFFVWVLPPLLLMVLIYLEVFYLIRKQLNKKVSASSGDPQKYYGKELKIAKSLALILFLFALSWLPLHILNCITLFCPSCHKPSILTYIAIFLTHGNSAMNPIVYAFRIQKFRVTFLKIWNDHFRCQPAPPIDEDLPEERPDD
Description: The allosteric enhancer (AE) activity was studied at the human A1AR (hA1AR) of a panel of compounds consisting of nine 2-amino-3-aroylthiophenes, (3a-i), eight 2-amino-3-benzoyl-4,5-dimethylthiophenes (13a-h), […] 3-aroyl-2-carboxy-4,5-dimethylthiophenes, (17a-e), ten 2-amino-3-benzoyl-5,6-ihydro-4H-cyclopenta[b]thiophenes, (19a-I), fourteen 2-amino-3-benzoyl-4,5,6,7-tetrahyd robenzo-[b]thiophenes, (20a-n), and fifteen 2-amino-3-benzoyl-5,6,7,8-tetrahydro-4H-cyclohepta[b]thiophenes, (21a-o). An in vitro assay employing the A1AR agonist ^125I-N^6-aminobenzyladenosine (^125I-ABA) and membranes from CHO-K1 cells stably expressing the hA1AR measured, as an index of AE activity, the ability of a candidate AE to slow the dissociation of the radioligand from the A1AR-G protein ternary complex.
The assay of AE activity consisted of three phases: formation of the ^125I-ABA-A1AR-G protein ternary complex; binding of the AE to the allosteric site, and dissociation of the complex by adding a combination of an A1AR antagonist (100 μM cyclopentyltheophylline) and 50 µM GTPγS. This procedure detects only AE activity since phase 3 (dissociation) is affected only by the allosteric activity of the test compound and is not affected by competitive antagonist activity. GTPγS is added to accelerate the dissociation process. […] The assay employed membranes from CHO-K1 cells stably expressing the hA1AR. For agonist binding to equilibrium, the incubation mixture consisted of 10 mM HEPES, pH 7.2, containing 0.5 mM MgCl2, 1 U/mL adenosine deaminase, 0.5 nM ^125I-ABA and 10 μg of membrane protein in a final volume of 100 μL. This phase of the assay was allowed to proceed to equilibrium (>90 minutes) at room temperature. At that point phase 2 was initiated by adding 50 μL of a 0.3 mM solution (0.1 mM final) of a candidate AE or DMSO vehicle to rapidly occupy the allosteric site. Stock solutions of AEs (10 mM) were prepared in DMSO. Five minutes later phase 3 was initiated by the addition of 50 μL of a solution containing 400 μM 8-cyclopentyltheophylline and 200 μM GTPγS. Ten minutes later, residual radioligand bound to Aireceptors was trapped on Whatman GF/C glass fiber filters using a Brandel cell harvester, washed 3 times over a 20 second interval and counted in a γ-counter. The percentage of specifically bound agonist remaining after 10 minutes of dissociation was used to calculate the “score” of AE activity:
AE activity score=100×(B−Bo)/(Beq−Bo)
Where B=residual binding (cpm) bound at the end of 10 minutes of dissociation in the presence of an AE, Bo=residual binding (cpm) at the end of 10 minutes of dissociation in the absence of an AE, and Beq=cpm bound at the end of phase 2. A compound with no AE activity has a score of 0 in this assay. An AE which completely arrests agonist dissociation will have a score of 100.

A1AR = target: T2, A1AR (Homo sapiens, UniProt P30542); test: A1AR antagonistic activity: competition with equilibrium binding of [3H]CPX; conditions: 100 μM, N = 3; for inhibition at 100 µM: read-out: Antagonist activity, % (% inhibition of specific equilibrium binding of [3H]8-cyclopentyl-1,3-dipropylxanthine)
T2 sequence (P30542 1-326): T1 sequence (P30542 1-326)
Description: Several of the candidate AEs had substantial antagonistic activity. However, the AE and antagonist activities are unrelated (r^2=0.057, n=28).

adenosine A1 receptors = conditions: background statement, cited from earlier work

SMILES	AE Score, % (hA1AR)	inhibition at 100 µM (A1AR)	melting point	AE activity (in words) (hA1AR; hA1AR)	Antagonist activity, % (% inhibition of specific equilibrium binding of [3H]8-cyclopentyl-1,3-dipropylxanthine) (A1AR)	enhancement at A1 receptors (adenosine A1 receptors)	selectivity for adenosine A1 receptors (adenosine A1 receptors; other adenosine receptor subtypes, other classes of receptors)
Nc1sccc1C(=O)c1ccccc1 [Compound 3a, 2-Amino-3-benzoylthiophene]	0.2 ± 0.01%	24%	147 °C	–	–	–	–
NC1SC2=CCCC2=C1C(=O)c1cccc(Br)c1 (stereo not drawn) [Compound 19d, 2-Amino-3-(3-bromobenzoyl)-4,5-dihydrocyclopenta[b]thiophene]	13 ± 3%	76%	202 °C	–	–	–	–
Nc1sc2c(c1C(=O)c1ccc(-c3ccccc3)cc1)CCCC2 [Compound 20l, 2-Amino-3-(4-phenylbenzoyl)-4,5,6,7-tetrahydrobenzo[b]thiophene]	33 ± 2%	–	110 °C	excellent activity	–	–	–
Nc1sc2c(c1C(=O)c1ccc(I)cc1)CCCCC2 [Compound 21i]	96 ± 4.7%	–	–	–	11%	–	–
COc1cccc(C(=O)c2c(N)sc3c2CCCCC3)c1 [Compound 21j]	99 ± 3.1%	–	–	–	19%	–	–
Cc1sc(N)c(C(=O)c2cccc(C(F)(F)F)c2)c1C [PD 81,723]	–	–	–	–	–	enhancement at A1 receptors of all species tested to date	no effects on other adenosine receptor subtypes or on other classes of receptors
